We go through 24 compounds from patent publication US9776962B2, “Aromatic compounds with GPR40 agonistic activity” (TAKEDA PHARMACEUTICAL COMPANY LIMITED, priority 2013, dated 2017).

The target in the assay is T1, human GPR40 (Homo sapiens, UniProt O14842).
T1 construct: expressed in transfected cells
T1 sequence (O14842 whole entry): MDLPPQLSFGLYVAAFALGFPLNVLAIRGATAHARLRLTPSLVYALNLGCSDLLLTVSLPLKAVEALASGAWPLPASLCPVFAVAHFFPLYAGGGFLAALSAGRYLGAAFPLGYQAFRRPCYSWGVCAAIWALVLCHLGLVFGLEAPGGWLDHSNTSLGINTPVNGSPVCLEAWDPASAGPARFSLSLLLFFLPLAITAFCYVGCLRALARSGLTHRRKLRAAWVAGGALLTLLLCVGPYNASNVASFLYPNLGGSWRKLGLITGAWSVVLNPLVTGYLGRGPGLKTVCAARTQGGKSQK
Description: Evaluation of human GPR40 agonist activity with increase in intracellular Ca2+ concentration as an index (FLIPR). It counts as cell-based. The conditions noted are these: test compound 1 μM; CHO(dhfr−) cells stably expressing human GPR40; 100% = 10 μM compound of Example 153, 0% = DMSO. The procedure, abridged: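 CHO(dhfr−) cells stably expressing full-length human GPR40 were loaded with Ca2+ probe for 1 h at room temperature, then given test compound at 1 μM final. Fluorescence was followed on FLIPR, with activity scaled to a reference agonist at 10 μM (100%) and DMSO (0%).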
`COc1ccc(C(=O)N(CC(C)(C)C)c2cc(C)nc(C)n2)c(N2CCC(COc3cc(C(CC(=O)O)C4CC4)ccn3)CC2)c1` (stereo not drawn) [Example 228, 3-cyclopropyl-3-(2-((1-(2-((2,2-dimethylpropyl) (2,6-dimethylpyrimidin-4-yl)carbamoyl)-5-methoxyphenyl)piperidin-4-yl)methoxy)pyridin-4-yl)propanoic acid] displayed an activation at 1 µM of 99%.

In turn, `COc1ccc(C(=O)N(CC2CC2)c2cc(C)cc(C)n2)c(N2CCC(COc3cc(C(CC(=O)O)C4CC4)ccn3)CC2)c1` (stereo not drawn) [Example 244, 3-cyclopropyl-3-(2-((1-(2-((cyclopropylmethyl)(4,6-dimethylpyridin-2-yl)carbamoyl)-5-methoxyphenyl)piperidin-4-yl)methoxy)pyridin-4-yl)propanoic acid] showed an activation at 1 µM of 99%.

The compound `COc1ccc(C(=O)N(CC(C)(C)C)c2cnccn2)c(N2CCC(COc3cc(C(CC(=O)O)C4CC4)ccn3)CC2)c1` (stereo not drawn) [Example 178, 3-cyclopropyl-3-(2-((1-(2-((2,2-dimethylpropyl)(pyrazin-2-yl)carbamoyl)-5-methoxyphenyl)piperidin-4-yl)methoxy)pyridin-4-yl)propanoic acid] gave an activation at 1 µM of 103%.

For the compound `COc1ccc(C(=O)N(CC(C)(C)OC)c2ccccn2)c(N2CCC(COc3cc(C(CC(=O)O)C4CC4)ccn3)CC2)c1` (stereo not drawn) [Example 131, 3-cyclopropyl-3-(2-((1-(5-methoxy-2-((2-methoxy-2-methylpropyl)(pyridin-2-yl)carbamoyl)phenyl)piperidin-4-yl)methoxy)pyridin-4-yl)propanoic acid], the activation at 1 µM amounted to 85%.

Regarding `COc1ccc(C(=O)N(CC(C)(C)C)c2cncc(C(F)(F)F)c2)c(N2CCC(COc3cc(C(CC(=O)O)C4CC4)ccn3)CC2)c1` (stereo not drawn) [Example 235, 3-cyclopropyl-3-(2-((1-(2-((2,2-dimethylpropyl) (5-(trifluoromethyl)pyridin-3-yl)carbamoyl)-5-methoxyphenyl)piperidin-4-yl)methoxy)pyridin-4-yl)propanoic acid], the activation at 1 µM turned out to be 91%.

Compound `Cc1cccc(N(CC(C)(C)C)C(=O)c2ccc(C#N)cc2N2CCC(COc3cc(C(CC(=O)O)C4CC4)ccn3)CC2)n1` (stereo not drawn) [Example 260, 3-(2-((1-(5-cyano-2-((2,2-dimethylpropyl)(6-methylpyridin-2-yl)carbamoyl)phenyl)piperidin-4-yl)methoxy)pyridin-4-yl)-3-cyclopropylpropanoic acid] showed an activation at 1 µM of 89%.

In turn, `Cc1cccc(N(CC(C)(C)C)C(=O)c2c(F)cc(Cl)cc2N2CCC(COc3cc(C(CC(=O)O)C4CC4)ccn3)CC2)n1` (stereo not drawn) [Example 265, 3-(2-((1-(5-chloro-2-((2,2-dimethylpropyl)(6-methylpyridin-2-yl)carbamoyl)-3-fluorophenyl)piperidin-4-yl)methoxy)pyridin-4-yl)-3-cyclopropylpropanoic acid] returned an activation at 1 µM of 85%.

Compound `COc1ccc(C(=O)N(CC2CC2)c2cc(C)ccn2)c(N2CCC(COc3cc(C(CC(=O)O)C4CC4)ccn3)CC2)c1` (stereo not drawn) [Example 125, 3-cyclopropyl-3-(2-((1-(2-((cyclopropylmethyl)(4-methylpyridin-2-yl)carbamoyl)-5-methoxyphenyl)piperidin-4-yl)methoxy)pyridin-4-yl)propanoic acid] returned an activation at 1 µM of 95%.

As to `CCc1ccc(C(=O)N(CC(C)(C)C)c2ccccn2)c(N2CCC(COc3cccc(C(CC(=O)O)C4CC4)c3)CC2)n1` (stereo not drawn) [Example 60, 3-cyclopropyl-3-(3-((1-(3-((2,2-dimethylpropyl)(pyridin-2-yl)carbamoyl)-6-ethylpyridin-2-yl)piperidin-4-yl)methoxy)phenyl)propanoic acid], the activation at 1 µM was found to be 52%.

On to `COc1ccc(C(=O)N(CC(F)(F)F)c2cc(C)ccn2)c(N2CCC(COc3cc(C(CC(=O)O)OC)ccn3)CC2)c1` (stereo not drawn) [Example 271, 3-methoxy-3-(2-((1-(5-methoxy-2-((4-methylpyridin-2-yl)(2,2,2-trifluoroethyl)carbamoyl)phenyl)piperidin-4-yl)methoxy)pyridin-4-yl)propanoic acid], for which the activation at 1 µM turned out to be 98%.

`COc1ccc(C(=O)N(CC(F)(F)C(F)(F)F)c2nccc(C)n2)c(N2CCC(COc3cc(C(CC(=O)O)C4CC4)ccn3)CC2)c1` (stereo not drawn) [Example 171, 3-cyclopropyl-3-(2-((1-(5-methoxy-2-((4-methylpyrimidin-2-yl)(2,2,3,3,3-pentafluoropropyl)carbamoyl)phenyl)piperidin-4-yl)methoxy)pyridin-4-yl)propanoic acid]: the activation at 1 µM is 106%.

Turning to `COc1ccc(C(=O)N(CC(C)C)c2ccccn2)c(N2CCC(COc3cccc(C(CC(=O)O)C4CC4)c3)CC2)c1` (stereo not drawn) [Example 62, 3-cyclopropyl-3-(3-((1-(5-methoxy-2-((2-methylpropyl)(pyridin-2-yl)carbamoyl)phenyl)piperidin-4-yl)methoxy)phenyl)propanoic acid], the activation at 1 µM was 101%.

Compound `COc1ccc(C(=O)N(CC(C)(C)OC)c2cc(C)ccn2)c(N2CCC(COc3cc(C(CC(=O)O)C4CC4)ccn3)CC2)c1` (stereo not drawn) [Example 164, 3-cyclopropyl-3-(2-((1-(5-methoxy-2-((2-methoxy-2-methylpropyl)(4-methylpyridin-2-yl)carbamoyl)phenyl)piperidin-4-yl)methoxy)pyridin-4-yl)propanoic acid] came in with an activation at 1 µM of 88%.

`COc1ccc(C(=O)N(CC(C)(C)C)c2cccc(C)n2)c(N2CCC(C(C)Oc3cc(C(CC(=O)O)C4CC4)ccn3)CC2)c1` (stereo not drawn) [Example 268, 3-cyclopropyl-3-(2-(1-(1-(2-((2,2-dimethylpropyl)(6-methylpyridin-2-yl)carbamoyl)-5-methoxyphenyl)piperidin-4-yl)ethoxy)pyridin-4-yl)propanoic acid] yielded an activation at 1 µM of 92%.

Take `COc1ccc(C(=O)N(CC2CC2)c2ccccn2)c(N2CCC(COc3cc(C(CC(=O)O)C4CC4)ccn3)CC2)c1` (single isomer, unassigned) [Example 142, 3-cyclopropyl-3-(2-((1-(2-((cyclopropylmethyl)(pyridin-2-yl)carbamoyl)-5-methoxyphenyl)piperidin-4-yl)methoxy)pyridin-4-yl)propanoic acid]: the “Activity (human GPR40 agonist activity)” value was found to be 97%.

`CCC(C)(C)CN(C(=O)c1ccc(OC)cc1N1CCC(COc2cc(C(CC(=O)O)C3CC3)ccn2)CC1)c1ccccn1` (stereo not drawn) [Example 149, 3-cyclopropyl-3-(2-((1-(2-((2,2-dimethylbutyl)(pyridin-2-yl)carbamoyl)-5-methoxyphenyl)piperidin-4-yl)methoxy)pyridin-4-yl)propanoic acid]: the activation at 1 µM turned out to be 101%.

Regarding `COc1ccc(C(=O)N2C[C@@H](C)O[C@@H](C)C2)c(N2CCC(COc3cccc(C(CC(=O)O)C4CC4)c3)CC2)c1` (stereo partly drawn) [Example 5, 3-cyclopropyl-3-(3-((1-(2-((cis-2,6-dimethylmorpholin-4-yl)carbonyl)-5-methoxyphenyl)piperidin-4-yl)methoxy)phenyl)propanoic acid], the activation at 1 µM worked out at 85%.

Take `COc1ccc(C(=O)N(CC(C)(C)C)C2CCCN(CC(F)(F)F)C2)c(N2CCC(COc3cc(C(CC(=O)O)C4CC4)ccn3)CC2)c1` (stereo not drawn) [Example 233, 3-cyclopropyl-3-(2-((1-(2-((2,2-dimethylpropyl) (1-(2,2,2-trifluoroethyl)piperidin-3-yl)carbamoyl)-5-methoxyphenyl)piperidin-4-yl)methoxy)pyridin-4-yl)propanoic acid]: the activation at 1 µM was 85%.

In the case of `COc1ccc(C(=O)N(C)CC(C)C)c(N2CCC(COc3cccc(C(CC(=O)O)C4CC4)c3)CC2)c1` (stereo not drawn) [Example 1, 3-cyclopropyl-3-(3-((1-(5-methoxy-2-(methyl(2-methylpropyl)carbamoyl)phenyl)piperidin-4-yl)methoxy)phenyl)propanoic acid], the activation at 1 µM came to 97%.

As to `COc1ccc(C(=O)N(CC(C)(C)C)c2cccc(C)n2)c(N2CCC(COc3cc(C(CC(=O)O)C4CC4)ccn3)CC2)c1F` (stereo not drawn) [Example 252, 3-cyclopropyl-3-(2-((1-(6-((2,2-dimethylpropyl)(6-methylpyridin-2-yl)carbamoyl)-2-fluoro-3-methoxyphenyl)piperidin-4-yl)methoxy)pyridin-4-yl)propanoic acid], the activation at 1 µM was found to be 87%.

As for `COc1ccc(C(=O)N2CCOc3ccccc32)c(N2CCC(COc3cc(C(CC(=O)O)C4CC4)ccn3)CC2)c1` (stereo not drawn) [Example 199, 3-cyclopropyl-3-(2-((1-(2-(2,3-dihydro-4H-1,4-benzoxazin-4-ylcarbonyl)-5-methoxyphenyl)piperidin-4-yl)methoxy)pyridin-4-yl)propanoic acid], the activation at 1 µM was determined as 93%.

As to `COc1ccc(C(=O)N2CCOCC2c2ccccc2)c(N2CCC(COc3cc(C(CC(=O)O)C4CC4)ccn3)CC2)c1` (stereo not drawn) [Example 200, 3-cyclopropyl-3-(2-((1-(5-methoxy-2-((3-phenylmorpholin-4-yl)carbonyl)phenyl)piperidin-4-yl)methoxy)pyridin-4-yl)propanoic acid], the activation at 1 µM was found to be 89%.

In turn, `COc1ccc(C(=O)N(CC(C)C)c2cccnc2OC)c(N2CCC(COc3cc(C(CC(=O)O)C4CC4)ccn3)CC2)c1` (stereo not drawn) [Example 136, 3-cyclopropyl-3-(2-((1-(5-methoxy-2-((2-methoxypyridin-3-yl)(2-methylpropyl)carbamoyl)phenyl)piperidin-4-yl)methoxy)pyridin-4-yl)propanoic acid] registered an activation at 1 µM of 95%.

For the compound `COc1ccc(C(=O)N(CC(C)(C)OCC(F)(F)F)c2ccccn2)c(N2CCC(COc3cc(C(CC(=O)O)C4CC4)ccn3)CC2)c1` (stereo not drawn) [Example 161, 3-cyclopropyl-3-(2-((1-(5-methoxy-2-((2-methyl-2-(2,2,2-trifluoroethoxy)propyl)(pyridin-2-yl)carbamoyl)phenyl)piperidin-4-yl)methoxy)pyridin-4-yl)propanoic acid], the activation at 1 µM stood at 97%.
